Results from ChEMBL document CHEMBL1201862, “PubChem BioAssay data set” (2004).
Active and inactive are the calls of the source.

Legend:
Kallikrein-7 = Kallikrein-7 (Homo sapiens, UniProt P49862); assay: Fluorescence Intensity-based biochemical primary high throughput dose response assay to identify activators of kallikrein-7 (K7) zymogen.
Caspase-6 = molecular target: T1, Caspase-6 (Homo sapiens, UniProt P55212); assay: human caspase-6 inhibitors, dose response, biochemical, VEID-R110 fluorescence, cherry-pick (AID 720632)
T1 sequence (P55212 whole entry): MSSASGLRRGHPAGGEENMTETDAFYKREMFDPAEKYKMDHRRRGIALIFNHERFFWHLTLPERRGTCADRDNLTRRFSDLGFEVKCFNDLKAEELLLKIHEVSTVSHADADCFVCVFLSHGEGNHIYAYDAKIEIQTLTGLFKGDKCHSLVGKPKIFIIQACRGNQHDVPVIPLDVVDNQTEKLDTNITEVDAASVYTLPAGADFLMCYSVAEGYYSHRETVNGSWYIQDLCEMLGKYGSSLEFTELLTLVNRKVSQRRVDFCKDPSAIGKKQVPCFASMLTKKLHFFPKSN

[1] = molecular target: T2, COUP transcription factor 2 (Homo sapiens, UniProt P24468); assay: Luminescence-based cell-based high throughput dose response assay to identify inhibitors of COUP-TFII (NR2F2).; type: functional;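 note: HEK293 cells transiently cotransfected with COUP-TFII expression vector and reporter; luciferase reporter luminescence driven by COUP-TFII from the pX2-168 reporter plasmid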
T2 sequence (P24468 whole entry): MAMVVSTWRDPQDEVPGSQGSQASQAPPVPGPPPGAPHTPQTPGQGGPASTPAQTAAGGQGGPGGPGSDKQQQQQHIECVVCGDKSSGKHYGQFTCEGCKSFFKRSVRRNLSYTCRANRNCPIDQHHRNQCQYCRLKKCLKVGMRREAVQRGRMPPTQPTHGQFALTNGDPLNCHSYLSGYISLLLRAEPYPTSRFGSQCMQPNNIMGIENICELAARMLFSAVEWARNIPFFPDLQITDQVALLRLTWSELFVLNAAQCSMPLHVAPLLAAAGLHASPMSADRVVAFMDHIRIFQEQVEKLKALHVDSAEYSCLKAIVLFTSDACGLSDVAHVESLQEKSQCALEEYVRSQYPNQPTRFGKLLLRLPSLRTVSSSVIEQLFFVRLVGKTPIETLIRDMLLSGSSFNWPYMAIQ

cells [2] = type: functional, cell-based; settings: HEK-CNG
Galanin receptor type 3 = molecular target: T3, Galanin receptor type 3 (Homo sapiens, UniProt O60755); assay: Fluorescence-based cell-based primary high throughput dose response assay to identify antagonists of the Galanin Receptor 3 (GalR3).; type: functional
T3 sequence (O60755 whole entry): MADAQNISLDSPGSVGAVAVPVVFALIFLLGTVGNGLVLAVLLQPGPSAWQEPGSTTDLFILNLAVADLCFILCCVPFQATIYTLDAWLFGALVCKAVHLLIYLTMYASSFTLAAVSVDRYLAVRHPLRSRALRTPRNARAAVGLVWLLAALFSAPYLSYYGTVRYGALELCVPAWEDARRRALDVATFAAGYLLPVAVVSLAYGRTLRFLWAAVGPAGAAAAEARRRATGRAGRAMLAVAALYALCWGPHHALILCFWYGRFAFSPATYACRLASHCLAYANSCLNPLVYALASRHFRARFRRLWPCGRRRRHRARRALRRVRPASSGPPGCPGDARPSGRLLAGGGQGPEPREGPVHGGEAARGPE

cells [3] = type: functional, cell-based
[4] = LGR2 antagonists, dose response, cell-based, HEK293, CRE-luciferase reporter, cherry pick, set 2 (AID 743343); type: functional;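 note: transfected cells were stimulated with diluted bursicon conditioned medium after compound addition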
[5] = HEK293 cell cytotoxicity, dose response, cytotoxicity control, plate reader, cherry-picked samples (AID 743446); type: functional, cell-based
cells [6] = type: functional, cell-based; remark: listed apart in the source
[7] = A549 cell cytotoxicity, dose response, cytotoxicity control, plate reader, cherry-pick, antagonist series (AID 743412); type: functional, cell-based
[8] = HepG2 cell cytotoxicity, dose response, cytotoxicity control, plate reader, cherry-pick, antagonist series (AID 743416); type: functional, cell-based
[9] = MC4R antagonists, dose response, counter-screen for LGR2 antagonist project, cell-based, plate reader, cherry pick (AID 743444); type: functional;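 note: transfected HEK 293 cells stimulated with alpha-MSH peptide; potency of inhibitors of the alpha-MSH evoked signal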
[10] = inhibitors of SNCA 5'UTR-driven reporter translation, confirmation, H4 neuroglioma cells, luminescence (AID 1988); type: functional, cell-based
[11] = molecular target: T4, Mannose-6-phosphate isomerase (Homo sapiens, UniProt P34949); assay: human PMI inhibitors, high substrate, primary screen, biochemical, fluorescence intensity, high mannose 6-phosphate (AID 1220)
T4 sequence (P34949 whole entry): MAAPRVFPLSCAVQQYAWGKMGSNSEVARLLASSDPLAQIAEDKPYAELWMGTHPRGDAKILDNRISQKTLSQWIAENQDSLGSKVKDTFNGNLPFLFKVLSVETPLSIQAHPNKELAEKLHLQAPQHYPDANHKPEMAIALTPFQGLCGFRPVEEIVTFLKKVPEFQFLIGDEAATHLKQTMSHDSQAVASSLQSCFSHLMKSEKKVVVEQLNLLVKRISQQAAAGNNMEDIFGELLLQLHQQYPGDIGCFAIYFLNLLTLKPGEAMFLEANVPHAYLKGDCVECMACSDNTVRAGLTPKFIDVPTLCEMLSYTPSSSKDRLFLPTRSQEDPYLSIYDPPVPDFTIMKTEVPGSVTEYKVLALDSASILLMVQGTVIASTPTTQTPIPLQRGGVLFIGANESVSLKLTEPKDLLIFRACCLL

[12] = Luminescence Cell-Based Dose Response HTS to Identify Inhibitors of 5'UTR Stem-Loop Driven Prion Protein mRNA Translation in H4 Neuroglioblastoma Cells. [Related pubchem assays: 1827 (Project Summary), 1813 (Primary HTS)]; type: functional
[13] = inhibitors of firefly luciferase expression or activity, dose response, H4 neuroglioma cells, luminescence (AID 1990); type: functional, cell-based
[14] = cytotoxicity toward NIH3T3 fibroblasts, dose response, counter-screen, cell-based, ATP luminescence, mouse fibroblasts (AID 2010); type: functional;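 note: cells exposed to compound for about 90 hours before reading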
[15] = cytotoxicity in HEK-293T cells, dose response, cytotoxicity control for BCR NF-kB inhibitor project, luminescence, B-cell screen hits (AID 489021); type: functional, cell-based;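 note: HEK-293T cells carrying an NF-kB luciferase reporter; cells exposed to compound for about 14 hours before viability readout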
[16] = inhibitors of intracellular T. cruzi replication, confirmation, NIH3T3 host cells, beta-gal luminescence (AID 2044); type: functional, cell-based;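 note: intracellular parasites grown in NIH/3T3 mouse fibroblasts as host cells; luminescent beta-galactosidase reporter signal from transgenic T. cruzi replicating inside host cells; inhibitors lower the luminescence signal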
cells [17] = type: functional, cell-based; remark: listed apart in the source
[18] = molecular target: T5, Trace amine-associated receptor 1 (Homo sapiens, UniProt Q96RJ0); assay: Fluorescence-based cell-based high throughput dose response assay to identify agonists of the human trace amine associated receptor 1 (TAAR1).; type: functional
T5 sequence (Q96RJ0 whole entry): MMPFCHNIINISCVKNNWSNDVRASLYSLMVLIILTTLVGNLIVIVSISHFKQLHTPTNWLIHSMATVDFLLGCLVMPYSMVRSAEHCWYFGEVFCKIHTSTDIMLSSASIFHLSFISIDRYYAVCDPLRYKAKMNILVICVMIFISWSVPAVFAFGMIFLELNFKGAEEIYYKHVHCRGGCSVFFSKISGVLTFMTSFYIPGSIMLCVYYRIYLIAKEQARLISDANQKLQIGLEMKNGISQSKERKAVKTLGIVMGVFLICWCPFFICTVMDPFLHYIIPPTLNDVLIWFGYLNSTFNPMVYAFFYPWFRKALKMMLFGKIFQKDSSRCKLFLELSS

[19] = molecular target: T5, Trace amine-associated receptor 1; assay: Counterscreen for agonists of the human trace amine associated receptor 1 (hTAAR1): Fluorescence-based cell-based high throughput dose response assay to identify hTAAR1 agonist that also desensitize TAAR1 receptor response.; type: functional
cells [20] = type: functional, cell-based; remark: listed apart in the source
[21] = cytotoxicity in KRAS-transformed pancreatic duct cells, primary screen, cell-based, fluorescence, HTS (AID 431); type: functional; settings: Homo sapiens;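 note: cell line used: HPDE-C7K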
[22] = cytotoxicity in HPDE-C7 cells, cell-based, fluorescence, HTS (AID 430); type: functional; settings: Homo sapiens
[23] = P. falciparum Dd2 growth inhibitors, dose response, SYBR Green, cherry-picked samples (AID 1159567); type: functional, cell-based
[24] = molecular target: Heat shock protein HSP 90-alpha (Homo sapiens, UniProt P07900); assay: Luminescence-based dose response biochemical high throughput screening assay for inhibitors of the Heat Shock Protein 90 (HSP90). [Related pubchem assays: 1831 (Summary AID.), 1846 (Confirmation screen.), 1789 (Primary screen.)]
[25] = ZM109 Env clade C HIV-1 fusion inhibitors, dose response, HeLa effector, CEM target cells, luciferase, cherry-pick (AID 652058); type: functional, cell-based
[26] = off-target signal loss in HeLa-CEM21 co-culture – HeLa F-luc CTL cells, cherry-picked, counter-screen for HIV-1 Env fusion inhibitor project, dose response (AID 652040); type: functional, cell-based;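 note: potency for signal decrease marking cytotoxic or nonspecific inhibition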
[27] = inhibitors of HIV Env-driven cell fusion, dose response, cherry-pick (AID 652057); type: functional, cell-based
[28] = inhibitors of clade B AD8 Env fusion, dose response, cell-based, cherry-pick (AID 652062); type: functional;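 note: luciferase signal from cell-cell fusion driven by HIV-1 clade B AD8 Env; potency is for inhibitors of fusion seen as a drop in luminescence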
[29] = ADAM10 inhibitors, peptide cleavage, dose response, biochemical, QFRET (AID 743254);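 note: ADAM10 enzyme with the DM2 quenched FRET peptide as substrate; EDANS fluorescence gain as the protease cuts the substrate; inhibitor potency against ADAM10 proteolytic activity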
[30] = molecular target: Disintegrin and metalloproteinase domain-containing protein 17 (Homo sapiens, UniProt P78536); assay: ADAM17 protease inhibitors, dose response, counter-screen for ADAM10 exosite inhibitor project, biochemical, quenched FRET substrate (AID 743253)
[31] = non-specific cell cytotoxicity, dose response, cytotoxicity control for PAX8 inhibitor project, plate reader, dry powder samples (AID 743021); type: functional, cell-based
Paired box protein Pax-8 = Paired box protein Pax-8 (Homo sapiens, UniProt Q06710); assay: inhibitors of PAX8-driven TPO luciferase reporter, dose response, RMG-I cells, cherry-pick (AID 687027); type: functional, cell-based;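 note: luciferase reporter driven by Pax8 target thyroperoxidase promoter measured by SteadyGlo luminescence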
Sequence of Paired box protein Pax-8 (Q06710 whole entry): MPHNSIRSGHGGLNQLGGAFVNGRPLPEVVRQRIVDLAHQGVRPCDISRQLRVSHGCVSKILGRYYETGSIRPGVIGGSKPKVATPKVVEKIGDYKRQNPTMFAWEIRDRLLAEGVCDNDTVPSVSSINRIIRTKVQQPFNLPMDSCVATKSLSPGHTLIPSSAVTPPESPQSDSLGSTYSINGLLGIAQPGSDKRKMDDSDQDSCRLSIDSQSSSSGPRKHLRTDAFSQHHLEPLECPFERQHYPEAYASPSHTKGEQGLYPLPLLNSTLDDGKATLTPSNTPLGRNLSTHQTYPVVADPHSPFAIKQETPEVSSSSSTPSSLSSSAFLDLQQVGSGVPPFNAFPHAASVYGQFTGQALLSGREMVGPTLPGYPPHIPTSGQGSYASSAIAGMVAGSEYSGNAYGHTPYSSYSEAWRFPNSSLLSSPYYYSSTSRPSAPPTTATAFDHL

Sequence of Kallikrein-7 (P49862 whole entry): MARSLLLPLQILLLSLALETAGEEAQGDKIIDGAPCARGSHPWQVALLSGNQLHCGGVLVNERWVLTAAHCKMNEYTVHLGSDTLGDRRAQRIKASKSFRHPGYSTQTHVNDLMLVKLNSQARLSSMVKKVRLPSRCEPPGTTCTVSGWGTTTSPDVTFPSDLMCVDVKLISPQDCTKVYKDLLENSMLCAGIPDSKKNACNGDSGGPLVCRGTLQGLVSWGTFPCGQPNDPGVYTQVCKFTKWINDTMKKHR
Sequence of Disintegrin and metalloproteinase domain-containing protein 17 (P78536 whole entry, the tested form may be a part): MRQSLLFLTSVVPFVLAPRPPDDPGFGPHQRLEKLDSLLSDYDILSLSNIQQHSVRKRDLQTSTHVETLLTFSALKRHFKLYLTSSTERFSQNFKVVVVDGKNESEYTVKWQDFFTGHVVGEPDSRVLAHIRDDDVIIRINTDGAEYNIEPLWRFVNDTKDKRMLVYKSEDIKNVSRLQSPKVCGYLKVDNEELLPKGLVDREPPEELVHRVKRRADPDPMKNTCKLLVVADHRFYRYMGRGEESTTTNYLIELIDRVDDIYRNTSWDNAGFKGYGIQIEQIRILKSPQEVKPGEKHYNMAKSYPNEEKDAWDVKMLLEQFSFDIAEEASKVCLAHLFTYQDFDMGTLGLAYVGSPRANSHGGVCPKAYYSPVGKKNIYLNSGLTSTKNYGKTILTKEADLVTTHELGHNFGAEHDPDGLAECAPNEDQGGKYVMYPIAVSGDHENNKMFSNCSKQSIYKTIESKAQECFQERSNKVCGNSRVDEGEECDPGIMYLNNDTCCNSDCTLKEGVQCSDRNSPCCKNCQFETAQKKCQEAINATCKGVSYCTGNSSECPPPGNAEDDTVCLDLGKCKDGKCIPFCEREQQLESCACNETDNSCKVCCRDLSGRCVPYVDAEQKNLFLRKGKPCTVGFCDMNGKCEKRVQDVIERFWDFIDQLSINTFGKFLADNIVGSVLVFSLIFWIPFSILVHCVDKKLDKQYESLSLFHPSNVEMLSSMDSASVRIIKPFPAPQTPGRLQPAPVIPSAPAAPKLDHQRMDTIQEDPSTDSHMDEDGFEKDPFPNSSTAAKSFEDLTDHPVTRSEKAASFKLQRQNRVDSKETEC

N=c1c(C(=O)NC2CCCC2)cc2c(=O)n3ccccc3nc2n1CC1CCCO1 (configuration not stated)
EC50 (Kallikrein-7): 26.8 µM (inactive)

O=C(O)c1ccc([N+](=O)[O-])c([N+](=O)[O-])c1
AC50 (Caspase-6): 12.3 µM (active)

Cc1cccc(Cl)c1NC(=O)N1CCCN(c2nc3ccc(Cl)cc3s2)CC1
IC50 [1]: 11.3 µM (inactive)
EC50 (cells [2]): > 29.9 µM (inactive)
IC50 (Galanin receptor type 3): 2.06 µM (active)

CN(c1cccc(Cl)c1)S(=O)(=O)c1cccc(C(=O)Nc2nc3ccccc3[nH]2)c1
EC50 (cells [3]): > 350 µM (not active)
AC50 [4]: 24.5 µM (active)
AC50 [5]: 21.1 µM (active)
EC50 (cells [6]): 27.2 µM (active)
AC50 [7]: 14 µM (active)
AC50 [8]: 22.1 µM (active)
AC50 [9]: 19.6 µM (active)

C=CCNc1nc(NCc2ccccc2)c(C#N)c2c1CN(C)CC2
EC50 [10]: > 120 µM (not active)
IC50 [11]: > 50 µM (not active)
EC50 (Kallikrein-7): 13.1 µM (inactive)
EC50 [12]: > 120 µM (not active)
EC50 [13]: > 120 µM (not active)

COc1ccc(/C=N/OCC(=O)NC(c2ccccc2)c2ccccc2)cc1OC
EC50 [14]: > 60 µM (not active)
IC50 [15]: > 80 µM (inactive)
IC50 [1]: 5.09 µM (active)
EC50 (cells [2]): > 29.9 µM (inactive)
EC50 [16]: 0.56 µM (active)
IC50 (Galanin receptor type 3): 1.23 µM (active)

c1ccc2c(c1)CCN(c1nc3cc4c(cc3s1)OCO4)C2
IC50 (cells [17]): > 29.9 µM (inactive)
EC50 [18]: 0.751 µM (active)
IC50 [19]: 2.96 µM (active)
EC50 (cells [20]): > 29.9 µM (inactive)

COc1cc(C(C)=O)ccc1OCC(O)CNCC(O)c1ccccc1 (configuration not stated)
IC50 (cells [17]): > 29.9 µM (inactive)
EC50 [18]: 2.13 µM (active)
IC50 [19]: 12.3 µM (inactive)
EC50 (cells [20]): > 29.9 µM (inactive)

O=C(CCN1CCc2ccccc2CC1)c1ccc2c(c1)OCCO2
IC50 (cells [17]): > 29.9 µM (inactive)
EC50 [21]: 11.3 µM (active)
EC50 [22]: 13.1 µM (active)
EC50 [18]: 0.254 µM (active)
IC50 [19]: 0.828 µM (active)
EC50 (cells [20]): > 29.9 µM (inactive)

CCN(CC)S(=O)(=O)c1cccc(-c2cn3cccnc3n2)c1
EC50 (Kallikrein-7): > 69.5 µM (inactive)

COc1ccc2c3c(n(C)c2c1)[C@@H](CO)N(Cc1ccccc1)CC31CCN(S(=O)(=O)c2ccc(C)cc2)CC1
AC50 [23]: 6.1 µM (active)

C#CCn1cc(/C=C2\NC(=O)NC2=O)c2ccccc21
IC50 [24]: 1.31 µM (active)

CCOc1ccc(C(C)=O)cc1COC(=O)c1ccccc1C(=O)N(C)Cc1ccccc1
AC50 [25]: 4.87 µM (active)
AC50 [26]: 5.14 µM (active)
AC50 [27]: 3.55 µM (active)
AC50 [28]: 6.39 µM (active)

CCCCCCCCN1C(=O)[C@@H](CC(=O)NCc2ccc(OC)c(OC)c2)C[C@@]2(C(=O)OC)C1=C[C@H](C(C)C)O[C@@H]2C1CC1
IC50 [29]: 10.8 µM (inactive)
IC50 [30]: > 69.5 µM (inactive)

C[C@@H]1CCCCO[C@H](CN(C)C(=O)NC2CCCCC2)[C@H](C)CN([C@@H](C)CO)C(=O)c2cc(NS(=O)(=O)c3ccc(Cl)cc3)ccc2O1
AC50 [31]: 52.5 µM (active)
AC50 (Paired box protein Pax-8): 10.5 µM (active)

COc1ccccc1NC(=O)C(=N\O)/C(C)=N/O
AC50 (Caspase-6): 11.2 µM (active)

O=C(OCc1ccccn1)c1ccc(COc2ccc3ccccc3c2)o1
IC50 [24]: 2.61 µM (active)

CCCCC[C@H](C)N1C[C@@H](COCc2ccccc2)Oc2cc(N3CC[C@H](O)C3)ccc2S1(=O)=O
IC50 [29]: 8.14 µM (active)
IC50 [30]: > 69.5 µM (inactive)
